Data on 52 compounds can be found in US20240376411A1, “IMPROVED PERFUME COMPOSITIONS COMPRISING SULFUR-CONTAINING PRO-FRAGRANCE COMPOUNDS” (FIRMENICH SA, priority 2021, published 2024).

The first series is described as follows: Identification of perfumery raw materials that promote hydrogen sulfide formation (1:1 w/w mix, storage, smell). As to conditions: raw materials named in Example 2 as not promoting; test conditions not repeated there. The format is physicochemical. The method, then:
In other words, each of the perfumery raw materials being present in the perfume composition is capable of inducing a hydrogen sulfide smell when being mixed individually in a 1:1 (w/w) ratio with the sulfur-containing pro-fragrance compound and being stored for 2 weeks at 50° C. Preferably, a hydrogen sulfide smell is induced when being mixed in a 1:1 (w/w) ratio with 3-(dodecylthio)-1-(2,6,6-trimethylcyclohex-3-en-1-yl) butan-1-one (HaloScent® D) and stored for 2 weeks at 50° C. Preferably, the mixing is carried out in a 10 mL glass jar. The perfumery raw materials may be used as such or may be dissolved in a solvent, for example at a concentration of from 10% to 50%.
Perfumery raw materials that promote the formation of hydrogen sulfide from 3-(dodecylthio)-1-(2,6,6-trimethylcyclohex-3-en-1-yl) butan-1-one (HaloScent® D) have been identified by mixing individual perfumery raw materials with 3-(dodecylthio)-1-(2,6,6-trimethylcyclohex-3-en-1-yl) butan-1-one (HaloScent® D) in a 1:1 (w/w) ratio in a 10 mL glass jar and storing said mixture for 2 weeks at 50° C. In case a hydrogen sulfide smell (similar to rotten egg odor) could be perceived after 2 weeks, it has been concluded that the perfumery raw material promotes the formation of hydrogen sulfide from 3-(dodecylthio)-1-(2,6,6-trimethylcyclohex-3-en-1-yl) butan-1-one (HaloScent® D).
`CC/C=C\CCOC(C)=O` [(Z)-3-hexenyl acetate]: the “promotion of formation of hydrogen sulfide from HaloScent® D” value (from here on “promotion”) was “do not promote the formation of hydrogen sulfide”. The same measure, in the same setting: with `CCCC(=O)OCC(C)CC` (stereo not shown) [2-methylbutyl butyrate] the entry was “do not promote the formation of hydrogen sulfide”. On the same count and under the same terms, for `C/C=C/c1ccc(O)c(OC)c1` [2-methoxy-4-[(1E)-1-propen-1-yl]phenol] the value was “do not promote the formation of hydrogen sulfide”; for `CC(=O)c1ccccc1` [acetophenone], “do not promote the formation of hydrogen sulfide”. Same read-out and setting: for `CCCC(=O)OC(C)(C)Cc1ccccc1` [1,1-dimethyl-2-phenylethyl butanoate] the value was “do not promote the formation of hydrogen sulfide”; for `CC(C)CCCC(C)CCO` (racemic) [(+/−)-3,7-dimethyl-1-octanol], “do not promote the formation of hydrogen sulfide”; for `CC/C=C\CCO` [(3Z)-3-hexen-1-ol], “do not promote the formation of hydrogen sulfide”. Take `CCCCCCOC(C)=O` [hexyl acetate]: the “promotion” value is “do not promote the formation of hydrogen sulfide”. The same measure, in the same setting: for `C=CCOC(=O)COC1CCCCC1` [allyl (cyclohexyloxy)acetate] the value was “do not promote the formation of hydrogen sulfide”. Regarding `CCCC(=O)OCC` [ethyl butanoate], the “promotion” value is reported as “do not promote the formation of hydrogen sulfide”. The same measure, in the same setting: with `CC(=O)OC1CC2CC1C1CC=CC21` (stereo not shown) [tricyclo[5.2.1.02,6]dec-¾-en-8-yl acetate] the entry was “do not promote the formation of hydrogen sulfide”.

For allyl(⅔-methylbutoxy)acetate, the “promotion” value is reported as “do not promote the formation of hydrogen sulfide”.

Regarding `C=CCOC(=O)CCCCC` [allyl hexanoate], the “promotion” value is given as “do not promote the formation of hydrogen sulfide”. The same measure, in the same setting: for `c1ccc(Oc2ccccc2)cc1` [1,1′-oxydibenzene] the value was “do not promote the formation of hydrogen sulfide”.

Regarding `O=C1CCCCCCCCCCCC(=O)OCCO1` [1,4-dioxacycloheptadecane-5,17-dione], the “promotion” value was “do not promote the formation of hydrogen sulfide”. Consider `COC(=O)c1ccccc1O` [methyl 2-hydroxybenzoate], for which the “promotion” value is on record as “do not promote the formation of hydrogen sulfide”. The same measure, in the same setting: with `COc1ccc(C)cc1` [1-methoxy-4-methylbenzene] the entry was “do not promote the formation of hydrogen sulfide”. Still for that read-out and setting: with `CC(=O)O[C@@H]1CC2CC[C@]1(C)C2(C)C` [(1R,2R)-1,7,7-trimethyl-bicyclo[2.2.1]hept-2-yl acetate] the entry was “do not promote the formation of hydrogen sulfide”. On the same count and under the same terms, for `C=CCc1ccc(O)c(OC)c1` [2-methoxy-4-(2-propen-1-yl) phenol] the value was “do not promote the formation of hydrogen sulfide”; for `CC(=O)OC1CCC(C(C)(C)C)CC1` (stereo not shown) [4-(2-methyl-2-propanyl)cyclohexyl acetate], “do not promote the formation of hydrogen sulfide”. Take `CC1C(C)(C)C2=C(C(=O)CCC2)C1(C)C` (stereo not shown) [1,1,2,3,3-pentamethyl-1,2,3,5,6,7-hexahydro-4H-inden-4-one]: the “promotion” value is reported as “do not promote the formation of hydrogen sulfide”. The same measure, in the same setting: for `COC(Cc1ccccc1)OC` [(2,2-dimethoxyethyl)benzene] the value was “do not promote the formation of hydrogen sulfide”. Still for that read-out and setting: for `CCCC(=O)OCCC(C)C` [3-methylbutyl butyrate] the value was “do not promote the formation of hydrogen sulfide”; for `C=C(OC(C)=O)c1ccccc1` [1-phenylvinyl acetate], “do not promote the formation of hydrogen sulfide”. On the same count and under the same terms, for `CCOC(=O)/C=C/c1ccccc1` [ethyl (E)-3-phenyl-2-propenoate] the value was “do not promote the formation of hydrogen sulfide”; for `CC/C=C\CCOC(=O)OC` [(3Z)-hex-3-en-1-yl methyl carbonate], “do not promote the formation of hydrogen sulfide”; for `CC(=O)OC(C)(C)Cc1ccccc1` [1,1-dimethyl-2-phenylethyl acetate], “do not promote the formation of hydrogen sulfide”.

Another series is described as follows: logP above 4 (octanol-water partition coefficient). The settings on record: Yes/No.
On to `CC1(C)CCC[C@]2(C)[C@H]3CCO[C@]3(C)CC[C@@H]12` (racemic) [(3aRS,5aSR,9aSR,9bRS)-3a,6,6,9a-tetramethyldodecahydronaphtho[2,1-b]furan], for which the “logP > 4” value was “Yes”. Turning to 3-methyl-4/5-cyclopentadecen-1-one, the “logP > 4” value is “Yes”. With `CC(C)=CCC[C@@H](C)CC#N` [(−)-(R)-3,7-dimethyl-6-octenenitrile], the “logP > 4” value is recorded as “No”.

For `CC1=CCC(C(C)(C)O)CC1` (racemic) [(+/−)-alpha-terpineol], the “logP > 4” value is recorded as “No”.

Take `CCC(=CCC1CC=C(C)C1(C)C)CO` (racemic) [(+/−)-2-ethyl-4-(2,2,3-trimethyl-3-cyclopenten-1-yl)-2-buten-1-ol]: the “logP > 4” value is on record as “Yes”.

With `C=CCOC(=O)CCC1CCCCC1` [allyl 3-cyclohexylpropanoate], the “logP > 4” value is recorded as “Yes”.

Turning to `CC(=O)c1ccc2ccccc2c1` [1-(2-naphthyl)ethanone], the “logP > 4” value is listed as “No”. The same measure, in the same setting: for `CC(=O)C1(C)CC2=C(CCCC2(C)C)CC1C` (stereo not shown) [1-(octahydro-2,3,8,8-tetramethyl-2-naphtalenyl)-1-ethanone] the value was “Yes”. With `CC(=O)CCc1ccc(O)cc1` [4-(4-hydroxyphenyl)-2-butanone], the “logP > 4” value is given as “No”. For `CCC(C)(O)CCCC(C)C` (racemic) [(+/−)-3,7-dimethyl-3-octanol], the “logP > 4” value was “No”. The same measure, in the same setting: with `CC/C=C\CCOC(=O)c1ccccc1O` [(3Z)-3-hexen-1-yl salicylate] the entry was “Yes”. The same measure, in the same setting: for `Cc1ccc2c(c1)CC(C)(CO)C2` (racemic) [(+/−)-2,5-dimethyl-2,3-dihydro-1H-inden-2-yl)methanol] the value was “No”.

Take `C=CC(C)CCCC(C)(C)O` (racemic) [(+−)-2,6-dimethyl-7-octen-2-ol]: the “logP > 4” value is reported as “No”. With `OCCc1ccccc1` [2-phenylethanol], the “logP > 4” value is “No”. Still for that read-out and setting: with “tricyclo[5.2.1.0^2,6]dec-3/4-en-8-yl propanoate” the entry was “Yes”; with `c1ccc2[nH]ccc2c1` [Indole], “No”. Same read-out and setting: for `N#CC(=C1CCCCC1)c1ccccc1` [cyclohexylidene(phenyl)acetonitrile] the value was “No”; for `C=CC(C)(CCC=C(C)C)OC(C)=O` (racemic) [(+/−)-1,5-dimethyl-1-vinyl-4-hexenyl acetate], “Yes”; for `CC(CO)c1ccccc1` (racemic) [(+/−)-2-phenyl-1-propanol], “No”. For the compound `CCOc1ccc2ccccc2c1` [2-ethoxynaphthalene], the “logP > 4” value is listed as “No”.

`C=CC(C)(O)CCC=C(C)C` (racemic) [(+/−)-3,7-dimethyl-1,6-octadien-3-ol]: the “logP > 4” value is “No”.

Regarding `CC1=CC[C@H](/C=C/C(C)(C)C(C)O)C1(C)C` (stereo partly drawn) [(4E)-3,3-dimethyl-5-[(1R)-2,2,3-trimethyl-3-cyclopenten-1-yl]-4-penten-2-ol], the “logP > 4” value was “Yes”. On the same count and under the same terms, for `CCCCC[C@H]1C(=O)CC[C@@H]1CC(=O)OC` (racemic) [methyl 2-((1RS,2RS)-3-oxo-2-pentylcyclopentyl)acetate] the value was “No”; for `CCC(O)COC1CCCCC1C(C)(C)C` (racemic) [(+/−)-1-(2-tert-butyl-1-cyclohexyloxy)-2-butanol], “Yes”. On to `CCC(=O)OCC(C)(C)O[C@@H](C)[C@@H]1CCCC(C)(C)C1` [(+)-2-{(1S)-1-[(1R)-3,3-dimethylcyclohexyl]ethoxy}-2-methylpropyl propionate], for which the “logP > 4” value is “Yes”.
